Assays:
[1] = target: T1, KOR (Homo sapiens, UniProt P41145); assay: [35S]GTPγS functional assay (agonist mode) at KOR; type: biochemical; conditions: [35S]GTPγS KOR EC50 ± SEM, agonist mode, standard U-69,593
[2] = system: C57BL/6J mice; assay: Acute antinociceptive tolerance assay (55 °C warm water tail withdrawal); type: in vivo, mouse; conditions: i.c.v.
[3] = target: T2, DOR (Homo sapiens, UniProt P41143); assay: [35S]GTPγS functional assay (agonist mode) at DOR; type: biochemical; conditions: [35S]GTPγS DOR EC50 ± SEM, agonist mode, standard DPDPE
[4] = In vivo pharmacokinetic study, intravenous; set-up: species or system Sprague Dawley rats; conditions: 5 mg/kg i.v., rat, mean (n = 6) ± SEM
Experimental: In vivo pharmacokinetic study. For the evaluation of the in vivo pharmacokinetic parameters of 22b, a pharmacokinetic study was performed in healthy male adult Sprague Dawley rats with in-dwelling jugular catheters weighing 225 ± 25 g. The animals were housed in single occupancy metabolic cages with mesh flooring and urine and feces receptacles. Six animals were dosed with 5 mg/kg intravenously, and the blood samples were collected at the following time points: pre-dose, 0.083, 0.17, 0.33, 0.50, 0.75, 1, 2, 4, 6, 8, and 10 h post-dose. All samples were stored at −80 °C until they were further analyzed. Collected plasma samples were analyzed using a validated UPLC-MS/MS method, and non-compartmental analysis of the plasma concentration data was performed using Phoenix® 6.4.
Bioanalytical method development and validation. A sensitive, accurate, and robust quantitative liquid chromatography tandem mass spectrometry (LC-MS/MS, Waters Corporation, Milford, MA, USA) method was developed and validated according to the FDA guidelines. Separation was achieved using a Waters Acquity I-Class liquid chromatography system equipped with a binary pump, a degasser, a temperature-controlled autosampler, and a column oven. The analyte was separated via gradient elution utilizing LC-MS grade water and methanol acidified with 0.02% trifluoroacetic acid (TFA, % v/v) through a 2.1 × 50 mm ACQUITY UPLC® CSH C18 column with 1.7 μm particle size (PN 186005296, SN 01463729915172). Mass detection was achieved via Waters Xevo TQS Micro triple quadrupole mass spectrometer in positive electrospray ionization (ESI^+) mode with the multiple reaction monitoring (MRM) function. The method was validated in rat plasma for the linearity range of 1–200 ng/mL. The gradient schematic and fragmentation monitoring parameters are reported in Tables S2 and S3 of the Supporting Information.

[5] = target: T3, hNPFF1-R (Homo sapiens, UniProt Q9GZQ6); assay: Radioligand competition binding at NPFF1-R; conditions: read-out: Receptor Binding, Ki ± SEM NPFF1-R
T3 construct: expressed in transfected cells; host or cells: CHO cells

[6] = system: C57BL/6J mice; assay: Locomotor testing (CLAMS); type: in vivo, mouse; conditions: 100 nmol i.c.v., 90 min
[7] = target: T4, MOR (Homo sapiens, UniProt P35372); assay: [35S]GTPγS functional assay (agonist mode) at MOR; type: biochemical; conditions: [35S]GTPγS MOR EC50 ± SEM
[8] = target: T4, MOR; assay: Radioligand competition binding at MOR
[9] = target: T1, KOR; assay: biochemical; type: binding
[10] = system: C57BL/6J mice; assay: Antinociception assay (55 °C warm water tail withdrawal assay); type: in vivo, mouse
[11] = Metabolic stability in rat liver microsomes; type: in vitro ADME
Experimental: In vitro metabolism of 22b (1 µM) was studied using Sprague Dawley rat liver microsomes (RLM) in a bench-top shaker for 1 h at 37 ± 0.5 °C. An aliquot (2 μL) of the stock solution (250 µM) was spiked in 0.5 mL of pre-incubated metabolic reaction mixture [50 mM Tris buffer (pH 7.4), 0.5 mg protein/mL of RLM, 20 mM magnesium chloride, and 2 mM NADPH]. Verapamil was used as the positive control to ensure the activity of the liver microsomal enzymes, and a metabolic reaction mixture without NADPH was used as the negative control in the same incubation conditions. An aliquot (40 µL) of the reaction mixture was withdrawn at 0, 5, 10, 15, 30, 45, and 60 min and quenched with 200 µL of ice-cold methanol. Samples were vortex-mixed for 2 min, followed by filtration (Multiscreen, Merck Millipore, Ireland) under vacuum. The filtrate was injected onto a UPLC-MS/MS system.
The hepatic elimination rate constant (k) was calculated directly from the slope of the natural logarithm (percent drug remaining) of the concentration vs. the time profile. In vitro half-life (t1/2), intrinsic clearance (CLint), and hepatic clearance (CLint,h) can be calculated from the equations reported in Figure S3 of the Supporting Information, where [V] is the incubation volume in mL and [P] is the amount of microsomal protein in the incubation mixture.

[12] = target: T5, hNPFF2-R (Homo sapiens, UniProt Q9Y5X5); assay: Radioligand competition binding at NPFF2-R; conditions: [3H]EYF, transfected CHO cell membranes; read-out: Receptor Binding, Ki ± SEM NPFF2-R
T5 construct: expressed in transfected cells; host or cells: CHO cells (membranes)

[13] = system: C57BL/6J mice; assay: Anti-hyperalgesia assay (48 °C warm water tail withdrawal assay, NPFF-induced hyperalgesia); type: in vivo, mouse
[14] = system: C57BL/6J mice; assay: Respiration testing (CLAMS); type: in vivo, mouse; conditions: 90 min
[15] = target: T2, DOR; assay: Radioligand competition binding at DOR; conditions: read-out: Receptor Binding, Ki ± SEM DOR
[16] = system: C57BL/6J mice; assay: Excreta assay (intestinal transit); conditions: 90 min
[17] = target: NPFF1-R; conditions: read-out: NPFF1-R Ki; Figure 1; ref [29]; cited from earlier work
[18] = target: T5, hNPFF2-R; set-up: method as in earlier work; conditions: inhibition of cAMP production induced by 2 μM forskolin; ref (46); read-out: Functional Activity hNPFF2-R EC50; cited from earlier work
[19] = target: T3, hNPFF1-R; conditions: inhibition of cAMP production induced by 2 μM forskolin; ref (46); read-out: Functional Activity hNPFF1-R EC50; cited from earlier work
[20] = male, Sprague Dawley, plasma, iv

T3 sequence (Q9GZQ6 whole entry): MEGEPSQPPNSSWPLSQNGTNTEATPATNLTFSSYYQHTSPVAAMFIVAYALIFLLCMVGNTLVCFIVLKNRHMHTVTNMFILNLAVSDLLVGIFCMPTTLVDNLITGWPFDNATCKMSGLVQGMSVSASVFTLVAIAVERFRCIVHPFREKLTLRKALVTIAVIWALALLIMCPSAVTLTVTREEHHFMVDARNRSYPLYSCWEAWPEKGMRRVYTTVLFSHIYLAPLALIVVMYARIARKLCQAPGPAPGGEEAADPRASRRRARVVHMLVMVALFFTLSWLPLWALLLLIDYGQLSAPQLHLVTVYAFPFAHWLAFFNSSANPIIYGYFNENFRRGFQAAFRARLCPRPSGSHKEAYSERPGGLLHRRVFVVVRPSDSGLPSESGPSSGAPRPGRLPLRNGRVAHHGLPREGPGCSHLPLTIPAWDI
T5 sequence (Q9Y5X5 whole entry): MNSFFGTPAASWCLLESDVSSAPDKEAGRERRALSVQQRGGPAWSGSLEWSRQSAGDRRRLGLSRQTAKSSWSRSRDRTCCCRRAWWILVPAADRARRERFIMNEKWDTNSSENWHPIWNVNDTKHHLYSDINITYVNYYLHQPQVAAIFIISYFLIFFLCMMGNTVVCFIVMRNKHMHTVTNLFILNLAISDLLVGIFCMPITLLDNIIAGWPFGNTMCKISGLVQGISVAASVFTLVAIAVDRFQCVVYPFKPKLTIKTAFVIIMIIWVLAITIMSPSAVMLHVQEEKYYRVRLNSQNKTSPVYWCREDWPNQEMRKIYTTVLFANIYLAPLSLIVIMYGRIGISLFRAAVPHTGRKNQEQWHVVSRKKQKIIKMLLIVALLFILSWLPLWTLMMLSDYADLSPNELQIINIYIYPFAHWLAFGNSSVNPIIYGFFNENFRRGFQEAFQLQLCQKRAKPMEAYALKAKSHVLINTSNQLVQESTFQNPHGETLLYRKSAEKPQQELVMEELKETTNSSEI
T4 sequence (P35372 whole entry): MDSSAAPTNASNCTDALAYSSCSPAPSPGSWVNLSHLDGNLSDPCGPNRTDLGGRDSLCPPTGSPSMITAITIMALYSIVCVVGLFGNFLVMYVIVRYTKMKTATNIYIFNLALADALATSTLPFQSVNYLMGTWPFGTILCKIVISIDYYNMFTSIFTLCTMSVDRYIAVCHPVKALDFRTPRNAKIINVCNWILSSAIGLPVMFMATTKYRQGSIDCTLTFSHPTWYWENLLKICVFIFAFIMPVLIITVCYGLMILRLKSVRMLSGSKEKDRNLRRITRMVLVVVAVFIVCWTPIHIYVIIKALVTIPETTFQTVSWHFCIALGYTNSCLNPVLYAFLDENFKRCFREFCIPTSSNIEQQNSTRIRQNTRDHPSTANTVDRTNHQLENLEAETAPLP
T2 sequence (P41143 whole entry): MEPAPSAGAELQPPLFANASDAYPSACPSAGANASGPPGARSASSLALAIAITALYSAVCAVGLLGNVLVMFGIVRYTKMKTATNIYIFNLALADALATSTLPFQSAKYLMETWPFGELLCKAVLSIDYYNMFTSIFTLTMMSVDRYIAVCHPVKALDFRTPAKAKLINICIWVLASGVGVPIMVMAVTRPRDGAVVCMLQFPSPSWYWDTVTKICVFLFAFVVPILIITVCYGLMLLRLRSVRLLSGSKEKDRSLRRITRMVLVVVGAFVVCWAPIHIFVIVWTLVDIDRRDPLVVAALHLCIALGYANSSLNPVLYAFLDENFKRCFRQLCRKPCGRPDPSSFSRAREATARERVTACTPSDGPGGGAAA
T1 sequence (P41145 whole entry): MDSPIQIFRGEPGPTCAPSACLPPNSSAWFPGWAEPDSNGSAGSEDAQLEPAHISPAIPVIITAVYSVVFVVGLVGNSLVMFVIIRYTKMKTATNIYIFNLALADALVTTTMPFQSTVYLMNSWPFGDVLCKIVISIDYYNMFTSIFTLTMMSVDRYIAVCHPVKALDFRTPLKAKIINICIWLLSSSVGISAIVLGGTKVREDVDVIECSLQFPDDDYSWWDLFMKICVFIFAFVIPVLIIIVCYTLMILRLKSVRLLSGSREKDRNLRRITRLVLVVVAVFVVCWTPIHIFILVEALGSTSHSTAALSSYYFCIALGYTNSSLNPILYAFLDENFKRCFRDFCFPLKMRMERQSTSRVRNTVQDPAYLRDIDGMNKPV

Question: With `N=C(N)Nc1ccc(C(=C2CCN(Cc3ccccc3)CC2)c2ccccc2)cc1` [Compound 22b, 1-(4-((1-Benzylpiperidin-4-ylidene)(phenyl)methyl)phenyl)guanidine] as the compound, how does the EC50 [1] read?
Answer: 2.71 ± 0.398 µM

Question: And the “antinociception ED50 (95% CI), second administration” value ([2]; given 8 h after a first dose (morphine 3 nmol, 22b 8.7 nmol), 55 °C)?
Answer: 10.8 (5.89–21.1) nmol

Question: What about the “rightward shift of antinociceptive dose response (acute tolerance)” value ([2]; second administration 8 h after first) of the same compound?
Answer: 1.6 fold

Question: What about the EC50 [3] of the same compound?
Answer: 0.539 ± 0.0932 µM

Question: And the AUC/dose0_inf [4]?
Answer: 3004.7 ± 108.1 ng·h/mL/mg

Question: What about the C0 [4, 20] of the same compound?
Answer: 9150 ± 3740 ng/mL

Question: What about the Vd [4, 20] of the same compound?
Answer: 2 ± 0.2 L

Question: What about the clearance [4, 20] of the same compound?
Answer: 5 mL/min

Question: What about the half-life [4, 20] of the same compound?
Answer: 4.1 ± 0.5 h

Question: And the k el ([4]; male, Sprague Dawley, plasma, iv, read-out: k (elimination rate constant) (converted))?
Answer: 5.56e-05 s⁻¹

Question: And the Ki [5]?
Answer: 0.929 ± 0.183 µM

Question: And the “effect on ambulation (spontaneous locomotor activity)” value [6]?
Answer: not significantly greater than that of the vehicle

Question: And the EC50 [7]?
Answer: 0.576 ± 0.311 µM

Question: And the Ki [8]?
Answer: 0.428 ± 0.033 µM

Question: And the Ki [9]?
Answer: 0.27 ± 0.043 µM

Question: And the “antinociceptive activity over time (screening)” value ([10]; 30 nmol i.c.v., 55 °C)?
Answer: induced the greatest tail withdrawal latencies

Question: And the “antinociceptive response after pretreatment with DOR-selective antagonist naltrindole” value ([10]; 22b 30 nmol i.c.v., naltrindole 20 mg/kg i.p. 20 min before, 40 min)?
Answer: did not alter the antinociceptive response

Question: And the “antinociceptive response after pretreatment with KOR-selective antagonist nor-BNI” value ([10]; 22b 30 nmol i.c.v., nor-BNI 10 mg/kg i.p. 24 h before, 40 min)?
Answer: did not alter the antinociceptive response

Question: What about the “antinociceptive activity after pretreatment with MOR-selective antagonist β-FNA” value ([10]; 22b 30 nmol i.c.v., β-FNA 5 mg/kg s.c. 24 h before, 40 min) of the same compound?
Answer: almost completely abolished

Question: What about the ED50 ([10]; Mus musculus, ip, 10 min, i.p., 10 min after administration, 55 °C, read-out: antinociception ED50 (95% confidence interval)) of the same compound?
Answer: 3.61 mg/kg

Question: What about the “antinociception ED50 (95% confidence interval)” value ([10]; i.c.v., 40 min after administration, 55 °C) of the same compound?
Answer: 6.88 (4.71–9.47) nmol

Question: And the “duration of antinociceptive effect” value ([10]; i.p. administration)?
Answer: no more than 50 min

Question: What about the “compound remained unchanged after 1 h of incubation” value ([11]; 1 µM, RLM, with NADPH) of the same compound?
Answer: 25.5%

Question: What about the “stability in negative control reaction mixture” value ([11]; RLM without NADPH) of the same compound?
Answer: metabolism of the compound was also observed

Question: What about the half-life at 1 µM ([11]; Sprague Dawley, rat, liver microsomes, pH 7.4, 1 µM, RLM, read-out: in vitro half-life) of the same compound?
Answer: 0.517 ± 0.0133 h

Question: And the “intrinsic clearance (CLint)” value ([11]; pooled rat liver microsomes)?
Answer: 0.045 ± 0.001 mL/min per milligram of microsomal protein

Question: What about the Ki [12] of the same compound?
Answer: 0.272 ± 0.001 µM

Question: What about the “prevention of NPFF-induced hyperalgesia (screening)” value ([13]; 30 nmol i.c.v. two hours before NPFF 30 nmol i.c.v.) of the same compound?
Answer: more moderate, yet still statistically significant, effect

Question: What about the “prevention of NPFF-induced hyperalgesia after peripheral pretreatment” value ([13]; 10 mg/kg i.p. pretreatment, NPFF 30 nmol i.c.v.) of the same compound?
Answer: significant antagonism

Question: What about the “effect on respiration rate” value ([14]; 30 nmol i.c.v.) of the same compound?
Answer: no marked reduction in respiration

Question: And the “effect on respiration rate” value ([14]; 100 nmol i.c.v.)?
Answer: increased respiration rate

Question: What about the Ki [15] of the same compound?
Answer: 0.0114 ± 0.0043 µM

Question: What about the “number of excreted fecal boli” value ([16]; 30 nmol i.c.v.) of the same compound?
Answer: 3.5 ± 0.7 boli

Question: And the “number of excreted fecal boli” value ([16]; 100 nmol i.c.v.)?
Answer: 4.1 ± 0.6 boli

Question: For `N=C(N)NCCNC(=O)C1(Nc2ccccc2)CCN(Cc2ccccc2)CC1` [compound 2], which Ki [17] is on record?
Answer: 0.081 ± 0.017 µM

Question: What does the source list for “1DMe: high-affinity peptidic NPFF receptor ligand (YLFQPQRF)”?
Answer: EC50 [18]: 0.0027 ± 0.0005 µM; EC50 [19]: 0.071 ± 0.014 µM

Source: publication PMC12251305 (Molecules, 2025)
